From ChEMBL document CHEMBL1159030, “Plant anticancer agents, L. cytotoxic triterpenes from Sandoricum koetjape stems” (1992)
Values after ≈ are worked out from the molar mass of the structure shown. Active and inactive are the calls of the source. The rule behind the calls is not given here.

Experiments:
Lu1 = assay: Cytotoxicity against human Lu1 cells; format: functional; details: read-out: ED50 (the source's name)
P388 = assay: Cytotoxicity against mouse P388 cells; format: functional; details: read-out: ED50 (the source's name)
HT-1080 = assay: Cytotoxicity against human HT1080 cells; format: functional; details: read-out: ED50 (the source's name)
SK-MEL-2 = assay: Cytotoxicity against human SK-MEL-2 cells; format: functional; details: read-out: ED50 (the source's name)
ZR-75-1 = assay: Cytotoxicity against human ZR-75-1 cells; format: functional; details: read-out: ED50 (the source's name)
Col2 = assay: Cytotoxicity against human Col2 cells; format: functional; details: read-out: ED50 (the source's name)
KB = assay: Cytotoxicity against human KB cells; format: functional; details: read-out: ED50 (the source's name)
ASK = assay: Antimitotic activity in rat ASK cells at 0.32 to 20 ug/mL; format: functional, cell-based
LNCaP = assay: Cytotoxicity against human LNCAP cells; format: functional; details: read-out: ED50 (the source's name)
[1] = Cytotoxicity against human BC1 cells; format: functional; details: read-out: ED50 (the source's name)
A-431 = assay: Cytotoxicity against human A431 cells; format: functional; details: read-out: ED50 (the source's name)
[2] = Cytotoxicity against human vinblastine-resistant KBV1 cells; format: functional; details: KB-V1, read-out: ED50 (the source's name)

| Structure (SMILES) | EC50 (Lu1) | EC50 (P388) | EC50 (HT-1080) | EC50 (SK-MEL-2) | EC50 (ZR-75-1) | EC50 (Col2) | EC50 (KB) | Activity (ASK) | EC50 (LNCaP) | EC50 [1] | EC50 (A-431) | EC50 [2] |
| --- | --- | --- | --- | --- | --- | --- | --- | --- | --- | --- | --- | --- |
| C=C1CC[C@@H]2O[C@]2(C)CC[C@@H]2[C@@H]1CC2(C)C | > 20 µg/mL | > 20 µg/mL | > 20 µg/mL | > 20 µg/mL | > 20 µg/mL | > 20 µg/mL | > 20 µg/mL | inactive | > 20 µg/mL | > 20 µg/mL | > 20 µg/mL | > 20 µg/mL |
| CC1(C)C(=O)CC[C@]2(C)[C@H]3CC=C4[C@@H]5C[C@](C)(C(=O)O)CC[C@]5(C)CC[C@@]4(C)[C@]3(C)CC[C@@H]12 | 10 µg/mL (≈ 22 µM) | 0.61 µg/mL (≈ 1.34 µM) | > 20 µg/mL | 12 µg/mL (≈ 26.4 µM) | 5.2 µg/mL (≈ 11.4 µM) | > 20 µg/mL | 4.9 µg/mL (≈ 10.8 µM) |  | 10 µg/mL (≈ 22 µM) | > 20 µg/mL | > 20 µg/mL | 8.5 µg/mL (≈ 18.7 µM) |
| C=C1CC[C@@H]2[C@H]([C@H]3[C@@H](C)CC[C@@H]13)C2(C)C | > 20 µg/mL | > 20 µg/mL | > 20 µg/mL | > 20 µg/mL | > 20 µg/mL | > 20 µg/mL | > 20 µg/mL | inactive | > 20 µg/mL | > 20 µg/mL | > 20 µg/mL | > 20 µg/mL |
| CC1(C)[C@H](O)CC[C@]2(C)[C@H]3CC=C4[C@@H]5C[C@](C)(C(=O)O)CC[C@]5(C)CC[C@@]4(C)[C@]3(C)CC[C@@H]12 [KATONIC ACID] | 11 µg/mL (≈ 24.1 µM) | 0.11 µg/mL (≈ 0.241 µM) | 19 µg/mL (≈ 41.6 µM) | 12 µg/mL (≈ 26.3 µM) | 2.2 µg/mL (≈ 4.82 µM) | > 20 µg/mL | 8.3 µg/mL (≈ 18.2 µM) |  | 10 µg/mL (≈ 21.9 µM) | 7.8 µg/mL (≈ 17.1 µM) | 12 µg/mL (≈ 26.3 µM) | 15 µg/mL (≈ 32.8 µM) |
| C=C(C)[C@@H]1CC[C@]2(C)[C@H](CC=C3[C@@H]4C[C@@](C)(C(=O)O)CC[C@]4(C)CC[C@]32C)[C@@]1(C)CCC(=O)O [KOETJAPIC ACID] | > 20 µg/mL | > 20 µg/mL | > 20 µg/mL | > 20 µg/mL | > 20 µg/mL | > 20 µg/mL | > 20 µg/mL | inactive | > 20 µg/mL | > 20 µg/mL | > 20 µg/mL | > 20 µg/mL |
| C=C1CC[C@@H]2[C@H]([C@H]3[C@H]1CC[C@]3(C)O)C2(C)C [SPATHULENOL] | > 20 µg/mL | > 20 µg/mL | > 20 µg/mL | > 20 µg/mL | > 20 µg/mL | > 20 µg/mL | > 20 µg/mL | inactive | > 20 µg/mL | > 20 µg/mL | > 20 µg/mL | > 20 µg/mL |
